Experimental data from patent US20200129535A1, “DESMOCOLLIN 1 INHIBITORS FOR THE PREVENTION OR TREATMENT OF ATHEROSCLEROSIS” (priority 2017, published 2020).
Like-named read-outs stand apart in the source and are kept apart here.

Test system: Primary human skin fibroblasts
Assay: apoA-I-mediated cholesterol efflux study (promotion of HDL biogenesis) with compounds
Type: cell-based
Conditions: for EC50: Homo sapiens, Skin fibroblast, [3H]-cholesterol-labelled, cholesterol-loaded fibroblasts, 5 μg/ml apoA-I for 24 h, compound added during equilibration and apoA-I treatment
Experimental: FIGS. 17(A) to 17(C) show rutin (A), acarbose (B) and docetaxel (C) can promote apoA-I-mediated cholesterol efflux. Primary human skin fibroblasts were labelled with 0.2 μCi/ml of [^3H]-cholesterol during growth, loaded with 30 μg/ml of unlabeled cholesterol for 24 h, equilibrated for 24 h, and treated with 5 μg/ml of apoA-I for 24 h to determine efflux of cellular cholesterol by apoA-I. The indicated concentrations of rutin, acarbose and docetaxel were added during the equilibration and apoA-I treatment period. Results are expressed as percentage of total (cell plus medium) [^3H]-sterol appearing in the medium. Values are the mean+SD of quadruplicate determinations. One-way analysis of variance with Dunnett's post-hoc correction was performed to calculate multiplicity-adjusted P values. *P<0.05; **P<0.001; ***P<0.0001 compared with the group treated with apoA-I alone.
To investigate the biological activity of the 51 compounds identified in Example 3 in modulating HDL biogenesis, we performed an apoA-I-mediated cholesterol efflux study as described previously (see Choi, H. Y. et al., J Biol Chem 278, 32569-32577 (2003)).

CC(=O)O[C@@]12CO[C@@H]1C[C@H](O)[C@@]1(C)C(=O)[C@H](O)C3=C(C)[C@@H](OC(=O)[C@H](O)[C@@H](NC(=O)OC(C)(C)C)c4ccccc4)C[C@@](O)([C@@H](OC(=O)c4ccccc4)[C@H]21)C3(C)C [No. 17, Docetaxel]
effect on apoA-I-mediated cholesterol efflux (FIG. 17, compared with the group treated with apoA-I alone): promote
EC50 (read-out: half-maximal effective concentration (EC50), promotion of apoA-I-mediated HDL biogenesis): 0.00072 µM
potency rank in promoting HDL biogenesis among the 3 most active compounds (dose-response curves, FIG. 17): most potent

C[C@H]1O[C@H](O[C@H]2[C@H](O)[C@@H](O)[C@@H](O[C@H]3[C@H](O)[C@@H](O)C(O)O[C@@H]3CO)O[C@@H]2CO)[C@H](O)[C@@H](O)[C@@H]1N[C@H]1C=C(CO)[C@@H](O)[C@H](O)[C@H]1O (stereo partly shown) [No. 2, Acarbose]
EC50 (read-out: EC50 value, promotion of apoA-I-mediated HDL biogenesis): 6.59 µM
